From patent US20090131258A1, “HERBICIDE COMPOSITIONS FOR UPLAND FARMING AND CONTROL METHOD” (priority 2004, published 2009) come the findings set out here.

Each structure is given as a SMILES string. Read-outs that look alike come from different tables or passages of the source.

Assay type in all cases: in vivo
Experiment [1] has as its system Alopecurus myosuroides Huds. Briefly: Foliar application test on Alopecurus myosuroides Huds. in upland field condition. Conditions: 672 h, fresh weight day 28, read-out: Inhibitory rate (%); for inhibition at 1000 g/ha: dose 1000 g a.i./ha; for inhibition at 2000 g/ha: dose 2000 g a.i./ha. An excerpt:
Next, Test Examples of the herbicide compositions according to the invention will be presented. In the following Test Examples, the ingredient (A) was mixed with the ingredient (B), (C), (D), (E) or (F) in practice. As a result, an effect exceeding the effect expected from the effects achieved by using the individual ingredients solely (i.e., a synergistic effect) was observed. The term “synergistic effect” means the effect achieved in the case where the effect achieved by two or more chemicals acting simultaneously exceeds the additive effect expected from the activities of the respective chemicals used solely. The activity expected by using a specific combination of two herbicides (hereinafter called “expectation”) can be calculated in accordance with the following Colby's formula (refer to Colby, S. R., Weeds, 15, p. 20 to 22 (1967)).
(§1) E=X+Y−(X×Y/100) Numerical formula 1
(§2) (In the above formula, E represents an inhibitory rate expected in the case of applying a mixture of p kg/ha of a herbicide A and q kg/ha of another herbicide B. X represents the inhibitory rate achieved by the application of p kg/ha of the herbicide A. Y represents the inhibitory rate achieved by the application of q kg/ha of the herbicide B.)
(§3) When the effect achieved by the mix application in practice exceeds the value E, the combination can be regarded as achieving a synergistic effect. Inhibitory rate was determined in accordance with the following numerical formula 2.
(§4) Inhibitory rate(%)=(1−fresh weight in treated lot/fresh weight in untreated lot)×100 Numerical formula 2
A resin vat having an area of 200 cm^2 was filled with upland soil that was diluvial clay loam soil. After fertilization, Alopecurus myosuroides Huds. was sowed and the seeds were evenly covered with the soil. Then, the plants were grown under controlled conditions in a greenhouse. When the test weeds grew to the 2.0 to 2.5 leaf stage, each herbicide having been diluted at a definite concentration and mixed was uniformly sprayed to the foliage with a small-sized high pressure sprayer. The preparation containing the ingredient (A) alone was prepared in accordance with Formulation Example 1 but adding diatomaceous earth to compensate for the decrease in the ingredient (B), (C) or (F). As the preparations respectively containing the ingredients (B) and (C) alone, marketed flowables were employed. As the preparation containing the ingredient (F) alone, a marketed emulsifiable concentrate was employed. The mixed preparations were prepared by mixing the same. Then, the plants were grown under controlled conditions in the greenhouse. On the day 28 after the application, the fresh weight of the above-ground part of each weed was measured and the inhibitory rate (%) was determined in accordance with Numerical Formula 2 and the expectation was calculated in accordance with Numerical Formula 1, Tables 2 and 3 show the results.

Experiment [2] deals with Matricaria inodora L. Kind of experiment: Foliar application test on Matricaria inodora L. in upland field condition. Conditions: day 28.
Description: (§5) Next, Test Examples of the herbicide compositions according to the invention will be presented. In the following Test Examples, the ingredient (A) was mixed with the ingredient (B), (C), (D), (E) or (F) in practice. […] The term “synergistic effect” means the effect achieved in the case where the effect achieved by two or more chemicals acting simultaneously exceeds the additive effect expected from the activities of the respective chemicals used solely.
as §1, §2, §3, §4
(§6) A resin vat having an area of 200 cm^2 was filled with upland soil that was diluvial clay loam soil. After fertilization, Stellaria media Villars and Matricaria inodora L. were sowed and the seeds were evenly covered with the soil. Then, the plants were grown under controlled conditions in a greenhouse. When the test weeds grew to the 2.0 to 2.5 leaf stage, each herbicide having been diluted at a definite concentration and mixed was uniformly sprayed to the foliage with a small-sized high pressure sprayer. […] As the preparation containing the ingredient (D) alone, marketed wettable granules were employed. As the preparation containing the ingredient (E) alone, a marketed flowable was employed. The mixed preparations were prepared by mixing the same. Then, the plants were grown under controlled conditions in the greenhouse.

The subject of experiment [3] is Stellaria media Villars. Briefly: Foliar application test on Stellaria media Villars in upland field condition. Conditions: day 28.
Description: as §5, §1, §2, §3, §4, §6

Where [4] appears, read: Table 4, single ingredient, dose 5 g a.i./ha.
[5] abbreviates: Table 4, single ingredient, dose 10 g a.i./ha.
Where [6] appears, read: Table 5, single ingredient, dose 2 g a.i./ha.
Setting [7] is: Table 5, single ingredient, dose 4 g a.i./ha.

For `CC(C)c1ccc(NC(=O)N(C)C)cc1` [(B), isoproturon], in experiment [1] (Table 2, single ingredient), the inhibition at 1000 g/ha was 69% and the inhibition at 2000 g/ha came to 90%.

On to `CCC(CC)Nc1c([N+](=O)[O-])cc(C)c(C)c1[N+](=O)[O-]` [(C), pendimethalin], for which, in experiment [1] (Table 2, single ingredient), the inhibition at 1000 g/ha came out at 16% and the inhibition at 2000 g/ha was 22%.

Turning to `COC(=O)c1ccc(C(F)(F)F)nc1S(=O)(=O)[N-]C(=O)Nc1nc(OC)cc(OC)n1.[Na+]` [(D), sodium salt of flupyrsulfuron-methyl], the “Inhibitory rate (%)” value in experiment [2] (setting [4]) was found to be 46%; in experiment [2] (setting [5]), 67%; in experiment [3] (setting [4]) it was 77%; in experiment [3] (setting [5]), 85%.

Take `COc1ncc(F)c2nc(S(=O)(=O)Nc3c(F)cccc3F)nn12` [(E), florasulam]: the “Inhibitory rate (%)” value turned out to be 70% in experiment [2] (setting [6]), 80% in experiment [2] (setting [7]), 75% in experiment [3] (setting [6]) and 90% in experiment [3] (setting [7]).

Regarding `CCCN(CCC)c1c([N+](=O)[O-])cc(C(F)(F)F)cc1[N+](=O)[O-]` [(F), trifluralin], in experiment [1] (Table 3, single ingredient), the inhibition at 1000 g/ha was found to be 55% and the inhibition at 2000 g/ha was found to be 85%.
